From US20040082623A1, “Fmoc-l-leucine and derivatives thereof as ppar-gamma agonists” (priority 2003, published 2004) come the findings set out here.

In one experiment the target is T1, hPPARγ LBD (Homo sapiens, UniProt P37231).
T1 construct: Human PPARγ (aa. 203 to 477 of PPARγ) was subcloned into the pET15b; His-tag (N); made in house
T1 sequence (P37231 203-477 isoform P37231-2): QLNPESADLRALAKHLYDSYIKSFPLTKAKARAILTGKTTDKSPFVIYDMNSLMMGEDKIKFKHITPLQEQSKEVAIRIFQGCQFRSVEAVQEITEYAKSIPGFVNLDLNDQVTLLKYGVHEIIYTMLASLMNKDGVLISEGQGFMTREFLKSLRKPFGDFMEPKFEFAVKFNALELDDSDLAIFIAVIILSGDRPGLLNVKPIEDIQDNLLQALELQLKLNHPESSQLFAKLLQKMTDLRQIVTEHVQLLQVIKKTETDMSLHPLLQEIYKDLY
As to the kind of experiment: ESI-mass spectrometry of ligand binding to PPARγ LBD. The source says:
FIG. 5: Two molecules of F-L-Leu bind to a single PPARγ molecule. ESI-mass spectrometry analysis.
The p300Nt-GST, fusion protein was generated by cloning the N-terminal part of the p300 protein (a.a. 2 to 516) downstream of the glutathione-S-transferase (GST) protein in the pGex-T1 vector (Pharmacia, Orsay, France). The fusion proteins were then expressed in Escherichia coli and purified on a glutathione affinity matrix (Pharmacia). Human PPARγ (aa. 203 to 477 of PPARγ) was subcloned into the pET15b (Novagen, Madison, Wis.) expression vector. The his-tagPPARγ2DE203-477 proteins were produced as follow. The protein was purified using a metal chelate affinity column with an affinity column Co^2+ coupled agarose (High Trap chelatin, Pharmacia). The protein was eluted with 20 mM Tris-HCl, […], 130 mM imidazole and 1-2 propanediol 2.5% (pH 8.5). A second purification step was made by gel filtration (Superdex 200 16/60, Pharmacia). The protein was eluted with 20 mM Tris-HCl, 100 mM NaCl, 5 mM DTT and 1-2 propanediol 2,5% (pH 8.5). […]
Electrospray ionization (ESI) mass spectrometry of hPPARγ LBD (amino acid 203 t ? 477) was used to identify the specific binding of F-L-Leu with PPARγ (FIG. 5). […] The mass of the receptor wa ? determined after incubation by ESI-mass spectrometry.

The next experiment relates to 3T3-L1 cells. As to the kind of experiment: Adipocyte differentiation of 3T3-L1 cells (Northern blot, Oil Red O). In kind it is cell-based, murine.
Experiment [1] has as its target T2, PPARγ2 (Homo sapiens, UniProt P37231).
T2 sequence (P37231 1-505): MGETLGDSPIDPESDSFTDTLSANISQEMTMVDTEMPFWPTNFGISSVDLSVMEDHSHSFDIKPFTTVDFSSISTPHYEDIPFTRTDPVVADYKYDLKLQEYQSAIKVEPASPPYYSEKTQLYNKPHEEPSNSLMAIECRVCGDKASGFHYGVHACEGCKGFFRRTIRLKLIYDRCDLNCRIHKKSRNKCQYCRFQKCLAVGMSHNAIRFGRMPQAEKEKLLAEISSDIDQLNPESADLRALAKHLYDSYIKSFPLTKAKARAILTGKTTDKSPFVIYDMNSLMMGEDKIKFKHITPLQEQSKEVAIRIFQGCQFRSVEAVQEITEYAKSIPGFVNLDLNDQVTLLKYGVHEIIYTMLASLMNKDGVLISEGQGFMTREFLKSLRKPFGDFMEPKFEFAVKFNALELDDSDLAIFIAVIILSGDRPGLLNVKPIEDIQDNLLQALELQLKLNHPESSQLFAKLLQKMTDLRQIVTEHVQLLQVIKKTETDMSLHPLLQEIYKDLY
As to the kind of experiment: Transient transfection, PPARγ2 reporter in CV1 cells. In kind it is cell-based. Also noted: a construct containing the entire cDNA of the human PPARγ2 (hPPARγ2); expressed in transfected cells; host or cells: Hep G2, RK13 or CV1 cells. The settings on record: simian renal cells CV1. Here is the method:
(§1) RK13 cells (A and D), CV1 cells (B) or Hep G2 cells (C) were co-transfected with an expression vector for PPARγ2 (0.1 μg/well), pGL3-(Jwt)3TKLuc reported construct (0.5 μg/well), and pCMV-βGal (0.5 μg/well), as a control of transfection efficiency (0.5 μg/well). They were then grown during 24 h in the presence or absence of indicated compound. Activation is expressed as relative luciferase activity/β ? galactosidase activity. Each point was performed in triplicate, and each figure i ? representative of four independent experiments.
The CV1, RK-13, and Hep G2 cell lines were obtained from ATCC (Rockville, Md.). Cells were maintained in Dulbecco's modified Eagle's minimal essential medium (DMEM) supplemented with 10% fetal calf serum (FCS), L-glutamine, and antibiotics. Transfections with chloramphenicol acetyltransferase (CAT) or luciferase (luc.) reporter constructs were carried out exactly as described previously (Schoonjans et al., 1996). The pGL3-(Jwt)3TKLuc and the pGL3-(Jwt)3TKCAT reporter constructs contain both three tandem repeats of the J site of the apolipoprotein A-II promoter cloned upstream of the herpes simplex virus thymidine kinase (TK) promoter and the luciferase or the CAT reporter genes respectively (Vu-Dac et al., 1995). […]

Experiment [2] deals with T2, PPARγ2. Put plainly: Transient transfection, PPARγ2 reporter (luciferase/β-galactosidase) in Hep G2 cells. In kind it is cell-based. More on the design: a construct containing the entire cDNA of the human PPARγ2 (hPPARγ2); expressed in transfected cells; host or cells: Hep G2. As to the method: Hep G2 cells were co-transfected with an expression vector for PPARγ2 (0.1 μg/well), pGL3-(Jwt)3TKLuc reporter construct (0.5 μg/well), and pCMV-βGal (0.5 μg/well), as a control of transfection efficiency (0.5 μg/well). The were then grown during 24 h in the presence or absence of indicated compound Activation is expressed as relative luciferase activity/β-galactosidase activity. Each point was performed in triplicate. This figure is representative of three independent experiments.
as §1
The CV1, RK-13, and Hep G2 cell lines were obtained from ATCC (Rockville, Md.). Cells were maintained in Dulbecco's modified Eagle's minimal essential medium (DMEM) supplemented with 10% fetal calf serum (FCS), L-glutamine, and antibiotics. Transfections with chloramphenicol acetyltransferase (CAT) or luciferase (luc.) reporter constructs were carried out exactly as described previously (Schoonjans et al., 1996). The pGL3-(Jwt)3TKLuc and the pGL3-(Jwt)3TKCAT reporter constructs contain both three tandem repeats of the J site of the apolipoprotein A-II promoter cloned upstream of the herpes simplex virus thymidine kinase (TK) promoter and the luciferase or the CAT reporter genes respectively (Vu-Dac et al., 1995). The following expression vectors were used; pSG5-hPPARγ2, a construct containing the entire cDNA of the human PPARγ2 (hPPARγ2) (Fajas et al., 1997); pSG5-mPPARα (Isseman et al., 1993); and pCMV-βGal, as a control of transfection efficiency.

The mark [3] stands for this setting: 3T3-L1, 10^−5 M, extent close to rosiglitazone 10^−7 M.

Description for 3T3-L1 cells: Confluent 3T3-L1 cells were incubated with 2 μM insulin, 1 μM dexamethasone, and 0.25 mM isobuthyl methyl xanthine for two days. […] A: RNA was isolated from 3T3-L1 cells after different times of differentiation induction. Blots were hybridized with 36B4 (to control for RNA loading); LPL or aP2 cDNAs. B: Cells were stained with Oil Red O after 6 days. LPL: lipoprotein lipase.
3T3-L1 cells (ATCC, Rockville, Md.) were grown to confluence in medium ? (Dulbecco's modified Eagle's Medium with 10% fetal calf serum, 100 units/n ? penicillin, and 100 μg/ml streptomycin). Confluent cells were incubated in medium ? containing 2 μM insulin, 1 μM dexamethasone, and 0.25 mM isobuthyl meth ? xanthine for two days. Then, the cells were incubated in medium A in presence ? absence of PPARγ y agonist for 4 days, changing the medium every 2 day ? Adipogenesis was evaluated by analysis of the expression of adipocyte-specif ? markers and by staining of lipids with Oil Red O (Chawla and Lazar, 1994).
Adipogenesis was monitored by analysis of lipoprotein lipase (LPL) and aP2 mRNA levels as markers of adipocyte differentiation and by studying morphological changes associated with the differentiation process.

Turning to `CC(C)CC(NC(=O)OCC1c2ccccc2-c2ccccc21)C(=O)O` [F-L-Leu, N-(9-fluroroenylmethyloxycarbonyl)-L-Leucine], the PPARγ species detected entry on hPPARγ LBD (1 equivalent of ligand per equivalent of PPARγ: unliganded, 1:1 and 1:2 complexes) is listed as “three populations of PPARγ”. Also, at hPPARγ LBD (8 equivalents of ligand per 1 equivalent of PPARγ, only complex detected), the “number of ligand molecules bound per PPARγ LBD” value amounted to 2. In the experiment with 3T3-L1 cells (setting [3]), the “LPL mRNA levels” value is given as “significantly stimulated” and the “aP2 mRNA levels” value is listed as “significantly stimulated”. Further, the “neutral lipid accumulation (Oil Red O staining)” value in the experiment with 3T3-L1 cells (3T3-L1, 6 days, F-L-Leu 10^−5 M, rosiglitazone 10^−7 M) is recorded as “capable of inducing neutral lipid accumulation”. Besides, the “concentration required for optimal PPARγ activation” value on PPARγ2 [1] is reported as 10^−5 M. On PPARγ2 [2] (HepG2), the “optimal concentration for PPARγ activation compared with PG J2” value was “similar”. Further, the “optimal concentration relative to concentration of rosiglitazone or pioglitazone necessary to reach the same efficacy” value on PPARγ2 [2] (HepG2, fold higher, pioglitazone data not shown) was found to be 100 fold. For the same compound, the “PPARγ activation (relative luciferase activity/β-galactosidase activity)” value at PPARγ2 [2] (HepG2 cells, pSG5-hPPARγ2, 24 h, F-L-leu at 10^−5 M) is recorded as “Significant PPARγ activity”. Also, on PPARγ2 [2] (human HepG2 cells), the “concentration required for optimal PPARγ activation” value is on record as 10^−5 M. Besides, on PPARγ2 [2] (summary statement, cell line not named), the “potency in transfection experiments relative to rosiglitazone” value is listed as “two orders of magnitude less potent”.
